# Target: 5-hydroxytryptamine receptor 7 (Homo sapiens, UniProt P34969)
# Test: Displacement of [3H]-LSD from 5HT7 receptor (unknown origin) expressed in CHOK1 cells
# Assay type: cell-based, CHO-K1
# Chain of 5-hydroxytryptamine receptor 7 (P34969 whole entry): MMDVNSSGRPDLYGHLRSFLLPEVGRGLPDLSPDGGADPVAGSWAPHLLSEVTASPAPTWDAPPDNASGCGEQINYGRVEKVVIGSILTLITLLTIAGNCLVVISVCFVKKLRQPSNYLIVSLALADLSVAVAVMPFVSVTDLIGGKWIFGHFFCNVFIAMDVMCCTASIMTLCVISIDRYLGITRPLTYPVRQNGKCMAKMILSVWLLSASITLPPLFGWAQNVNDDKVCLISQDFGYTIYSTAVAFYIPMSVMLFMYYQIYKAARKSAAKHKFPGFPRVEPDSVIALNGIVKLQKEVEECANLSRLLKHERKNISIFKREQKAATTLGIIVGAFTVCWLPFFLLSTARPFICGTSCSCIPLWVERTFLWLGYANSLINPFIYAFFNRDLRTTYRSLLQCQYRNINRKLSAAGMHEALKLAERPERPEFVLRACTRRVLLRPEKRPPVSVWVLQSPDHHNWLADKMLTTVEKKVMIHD
row,SMILES,Ki [nM]
1,Cc1ccc(C)c(N2CCN(Cc3ccccc3-c3ccccc3)CC2)c1,> 10000
2,COc1ccccc1N1CCN(Cc2ccccc2-c2ccccc2C)CC1,311
3,COc1ccccc1N1CCN(Cc2ccccc2-c2ccccc2Cl)CC1,297
4,FC(F)(F)c1cccc(N2CCN(Cc3ccccc3-c3ccccc3)CC2)c1,1660
5,COc1ccccc1N1CCN(Cc2ccccc2-c2ccc(Cl)cc2)CC1,220
6,COc1ccccc1-c1ccccc1CN1CCN(c2ccccc2OC)CC1,43
7,Cc1cccc(N2CCN(Cc3ccccc3-c3ccccc3)CC2)c1C,> 10000
8,COc1ccccc1N1CCN(Cc2ccccc2-c2cccc(Cl)c2)CC1,219
9,COc1cccc(-c2ccccc2CN2CCN(c3ccccc3OC)CC2)c1,77
10,COc1ccccc1N1CCN(Cc2ccccc2-c2ccccc2F)CC1,658
11,Cc1cc(C)cc(N2CCN(Cc3ccccc3-c3ccccc3)CC2)c1,> 10000

# More lines, now with the values ahead:
row,Ki [nM],SMILES
1,> 10000,Clc1ccccc1N1CCN(Cc2ccccc2-c2ccccc2)CC1
2,1850,COc1ccc(N2CCN(Cc3ccccc3-c3ccccc3)CC2)cc1OC
3,46,COc1ccc(-c2ccccc2CN2CCN(c3ccccc3OC)CC2)cc1
4,> 10000,Fc1ccccc1N1CCN(Cc2ccccc2-c2ccccc2)CC1
5,1750,Cc1ccccc1N1CCN(Cc2ccccc2-c2ccccc2)CC1
6,> 10000,Fc1ccc(N2CCN(Cc3ccccc3-c3ccccc3)CC2)cc1
7,> 10000,Clc1ccc(N2CCN(Cc3ccccc3-c3ccccc3)CC2)cc1
8,> 10000,COc1ccc(N2CCN(Cc3ccccc3-c3ccccc3)CC2)cc1
9,1200,Cc1cccc(N2CCN(Cc3ccccc3-c3ccccc3)CC2)c1
10,2760,Cc1ccc(N2CCN(Cc3ccccc3-c3ccccc3)CC2)cc1
11,> 10000,Fc1cccc(N2CCN(Cc3ccccc3-c3ccccc3)CC2)c1
12,> 10000,Cc1ccc(N2CCN(Cc3ccccc3-c3ccccc3)CC2)c(C)c1
13,> 10000,COc1cccc(N2CCN(Cc3ccccc3-c3ccccc3)CC2)c1

# — ChEMBL document CHEMBL2375224, “Discovery of aryl-biphenyl-2-ylmethylpiperazines as novel scaffolds for 5-HT(7) ligands and role of the aromatic substituents in binding to the target receptor” (Bioorg Med Chem, 2013)
